Source: PMC12560828, “Chemical structure drives developmental toxicity of alkyl-substituted naphthalenes in zebrafish” (Environment international, 2025)
“And” between values parts separate entries of the source, which are not always exact repeats. Identical values can stand only once. Like-named read-outs stand apart in the source and are kept apart here.

Experiments:
[1] = system: zebrafish larvae, 120 hpf; assay: Larval photomotor response (LPR) assay after vial exposure; assay type: in vivo, Danio rerio; conditions: LPR
Procedure, shortened: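 Embryos bleached at 6 hpf, exposed in sealed glass vials (8 per vial, DMSO stock at 200x) with rotation overnight at 28 °C, then singulated into chemical-free medium and kept dark at 28 °C. Movement tracked minutes 6–24 at 120 hpf, 6 s bins log-normalized to AUC; LEL per light/dark period from first cycle; nominal water concentrations, dead/malformed larvae excluded.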

[2] = system: early life stage zebrafish (Danio rerio) embryos; assay: Developmental toxicity morphology screen, sealed rotating vial exposure; assay type: in vivo; parameters: bmd, MO24 / bmd, MORT / bmd, ANY_ / bmd, AXIS / bmd, CRAN / bmd, EDEM / bmd, LTRK / bmd, MUSC / bmdL, ANY_ / bmdU, ANY_ / bmdL, AXIS / bmdU, AXIS / bmdL, CRAN / bmdU, CRAN / bmdL, EDEM / bmdU, EDEM / bmdL, LTRK / bmdU, LTRK / bmdL, MO24 / bmdU, MO24 / bmdL, MORT / bmdU, MORT: unit not given here; conditions: for morphological effects (BMC50 for any morphological endpoint): 0-50 μM, result in words
Procedure, shortened: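 Bleached 6 hpf embryos, eight per sealed glass vial in 2 mL EM, were dosed from a 200x DMSO stock and rotated end-over-end overnight at 28 °C, then moved to chemical-free EM at 24 hpf (32 embryos per treatment). Blinded binary scoring at 120 hpf was pooled as "Any effect". BMC50 is on nominal concentrations.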

lung tissue = conditions: compared to naphthalene and monomethylated derivatives, ref Honda et al., 1990, cited from earlier work
[3] = system: early life stage zebrafish; parameters: method as in Geier et al., 2018a; conditions: 96-well plate format; ref Geier et al., 2018a; cited from earlier work
zebrafish embryos [4] = assay: Body burden measurement (GC-MS/MS) and concentration uptake ratio, vial exposure; assay type: in vivo, Danio rerio; conditions: for measured concentration in embryo extract: 20 μM exposure, 32 pooled embryos, 0.5 mL extract, single replicates; for nmol/embryo per nmol available / nmol/embryo: Current study, vial, 20 μM; for nmol/embryo: single chemical
Procedure: (§1) Body burden was measured for exposure to five chemicals at two timepoints: 24 and 48 hpf. […] The exposure concentration was chosen as it was the maximum possible concentration that ensured enough viable animals for collection at 48 hpf and allowed direct comparison of chemical uptake at the same exposure concentration.
(§2) Chemicals were exposed at 20 μM following the exposure procedure detailed in section 1.3, 24 vials per chemical. At 24 hpf, embryos were pooled in groups of 32 embryos (combining embryos from 4 vials) into 1.5 mL polypropylene RINO-safe lock tubes (n = 3 per chemical treatment, n = 3 per control). Tubes were briefly placed on ice to reduce embryo movement (<1 min); the remaining medium was removed; the tube was then flash frozen in liquid nitrogen and stored at −20 °C until extraction. Embryos in the remaining vials were plated as previously described in section 1.3 until collection at 48 hpf following the same procedure as 24 hpf collections (n = 3 per chemical treatment, n = 1 control).
(§3) Tissue extraction was performed as previously reported ([Rude et al., 2025]). Each sample was spiked with 25 μL internal standard in ethyl acetate and 100 μL of 1 mm glass beads (Next Advance, Troy, NY United States) were added to the RINO-safe lock tubes containing thawed tissue samples and left on ice for 10 min 250 mg of Na2SO4 and 200 μL of ethyl acetate were added to each tube and vortexed. Tubes were homogenized at speed 8 for 6 min in a Bullet Blender (Next Advance, Troy, NY, United States). 300 μL of ethyl acetate was added to each tube and the homogenization step was repeated until no pieces of non-homogenized fish tissue remained. Samples were then centrifuged for 10 min at 4 °C, 1600g. Sample supernatant (0.5 mL) was collected into amber vials and stored at 4 °C until chemical analysis.
(§4) Samples were analyzed for quantitation and identification of 161 PAHs. The method was performed with an Agilent 7890 gas chromatograph (GC), with a 7000C triple quadrupole mass spectrometer (MS/MS) using an Agilent J&W PAH select (30 m × 250 μm × 0.15 μm GC column). Calibration for each analyte utilized at least a 4-point (range: 4–7, median 6 points, n = 161) curve with R^2 ≥ 0.99. Specific instrument conditions were modified from [Anderson et al. (2015)] and are detailed in Table S3. GC–MS/MS data was analyzed using MassHunter Quantitative Analysis v.B.06.00 SP1 build 6.0.388.1 software (Agilent Corp. Wilmington,DE) ([Anderson et al., 2015]). Dynamic muti-reaction monitoring mode was used during analyses, and all PAHs were identified using analytical standards obtained from multiple sources (Table S1). Collison energies were optimized for each individual unsubstituted PAH, alkylation series (C1, C2, etc.), and when possible, specific alkylation group (i.e. methyl, ethyl, etc.).
(§5) Body burden concentrations based on average embryo wet weight at each timepoint were determined by the equation below. Total measured chemical was calculated from ng/mL concentrations times sample volume (0.5 mL). Bodyburdennmol/mgbw=total measured chemicalnmol/number of fish32×average body weightmg
(§6) Average body weights at 24 hpf and 48 hpf were assumed to be 0.31 mg and 0.26 mg, respectively as determined previously ([Rericha et al., 2024]). Statistical analysis to compare time points within chemicals was performed using a two-sided Student’s t-test (p-value ≤ 0.05). An ANOVA with a follow-up Dunn’s test was used to compare body burden between chemicals at 24 hpf (p-value ≤ 0.05). Body burden concentrations at 24 hpf were compared to the estimated percent effect of each measured chemical at the exposure concentration used for body burden analysis (20 μM). These estimates were made using the fitted concentration-response curves previously described in section 2.3.2.2.
(§7) Concentration uptake ratios between vial exposures and 96-well plate exposures were compared using a two-sided Student’s t-test, p-values ≤ 0.05 were considered significant. […]

[5] = as above; assay type: in vivo, Danio rerio; conditions: zebrafish (Danio rerio), whole embryos (32 pooled, ethyl acetate extract), other: waterborne exposure of embryos in sealed vials, 20 μM exposure, 32 pooled embryos, 0.5 mL extract, single replicates, read-out: measured concentration in embryo extract
Procedure: as §1, §2, §3, §4, §5, §6, §7

zebrafish embryos [6] = conditions: 96-well, cited from earlier work
[7] = period dark, round 1, conc 3.125
[8] = period dark, round 1, conc 6.25
[9] = period dark, round 1, conc 12.5
[10] = period light, round 1, conc 3.125
[11] = period light, round 1, conc 6.25
[12] = period light, round 1, conc 12.5
[13] = 24 hpf, 2.6 μM, mixture, ref Rude et al 2025
[14] = 48 hpf, 2.6 μM, mixture, ref Rude et al 2025

CC(C)c1ccc2cc(C(C)C)ccc2c1 [2,6-diisopropylnaphthalene]
fold_change [1, 7]: -0.1214
fold_change [1, 8]: 0.07359
fold_change [1, 9]: -0.001373
fold_change ([1]; period dark, round 1, conc 25): -0.09025
fold_change ([1]; period dark, round 1, conc 50): -0.07941
fold_change [1, 10]: -0.5097
fold_change [1, 11]: -1.08
fold_change [1, 12]: -0.05494
fold_change ([1]; period light, round 1, conc 25): -0.2588
fold_change ([1]; period light, round 1, conc 50): -0.8125
morphological effects (BMC50 for any morphological endpoint) [2]: lack of activity
toxicity / lung tissue damage in mice (lung tissue): minimal damage to lung tissue
toxicity / lung tissue damage in mice (lung tissue; listed as 2,6-diidopropylnaphthalene): minimally active

Cc1ccc2cc(C)ccc2c1 [2,6-dimethylnaphthalene]
fold_change [1, 7]: -0.2769
fold_change [1, 8]: -0.4387
fold_change [1, 9]: -0.1031
fold_change ([1]; period dark, round 1, conc 25): -0.6771
fold_change ([1]; period dark, round 1, conc 50): -0.3061
fold_change [1, 10]: -0.2359
fold_change [1, 11]: -0.1972
fold_change [1, 12]: 0.2009
fold_change ([1]; period light, round 1, conc 25): -0.2222
fold_change ([1]; period light, round 1, conc 50): -0.2493
LPR effects [3]: all but 2,6-dimethylnaphthalene caused LPR effects

CC(C)c1ccc2ccccc2c1 [2-isopropylnaphthalene]
fold_change [1, 7]: -0.04413
fold_change [1, 8]: -0.6849
fold_change [1, 9]: -1.554
fold_change ([1]; period dark, round 2, conc 12.8): -0.9379
fold_change ([1]; period dark, round 2, conc 16): -1.368
fold_change ([1]; period dark, round 2, conc 20): -1.899
fold_change [1, 10]: 0.2872
fold_change [1, 11]: 0.3099
fold_change [1, 12]: 1.277
fold_change ([1]; period light, round 2, conc 12.8): -0.1327
fold_change ([1]; period light, round 2, conc 16): -0.2493
fold_change ([1]; period light, round 2, conc 20): 0.1913
BMC50 MO24 (mortality at 24 hpf) ([2]; Fig. 2, nominal concentration): 29.9 µM
BMC50 MORT (mortality at 120 hpf) ([2]; Fig. 2, nominal concentration): 25.2 µM
BMC50 Any effect ([2]; Fig. 2 heatmap, nominal concentration, exposure 6-24 hpf in vials, summary of all endpoints): 19.8 µM
any effect BMD50 ([2]; SI-T5): 19.85 µM
bmd, MO24 ([2]; endpoint MO24, benchmark dose): 29.9264
bmdL, MO24 ([2]; endpoint MO24, lower limit of benchmark dose): 27.6751
bmdU, MO24 ([2]; endpoint MO24, upper limit of benchmark dose): 32.9501
bmd, MORT ([2]; endpoint MORT, benchmark dose): 25.1507
bmdL, MORT ([2]; endpoint MORT, lower limit of benchmark dose): 24.3232
bmdU, MORT ([2]; endpoint MORT, upper limit of benchmark dose): 26.3204
bmd, ANY_ ([2]; morphology endpoint ANY_, benchmark dose): 19.8483
bmdL, ANY_ ([2]; morphology endpoint ANY_, lower limit of benchmark dose): 18.4734
bmdU, ANY_ ([2]; morphology endpoint ANY_, upper limit of benchmark dose): 21.3892
toxicity / lung tissue damage in mice (lung tissue): minimally active

c1ccc2ccccc2c1 [naphthalene]
morphological effects (BMC50 for any morphological endpoint) [2]: no morphological BMC50 values
measured concentration in embryo extract (zebrafish embryos [4]; 24 hpf): 4400 ng/mL and 5130 ng/mL
measured concentration in embryo extract (zebrafish embryos [4]; 48 hpf): 66.9 ng/mL and 62 ng/mL
nmol/embryo per nmol available (zebrafish embryos [4]; 24 hpf): 0.1585 and 0.1073 and 0.1251
nmol/embryo (zebrafish embryos [4]; 24 hpf): 0.7924 nmol/embryo and 0.5364 nmol/embryo and 0.6254 nmol/embryo
nmol/embryo per nmol available (zebrafish embryos [4]; 48 hpf): 0.001843 and 0.001631 and 0.001512
nmol/embryo (zebrafish embryos [4]; 48 hpf): 0.009216 nmol/embryo and 0.008156 nmol/embryo and 0.007558 nmol/embryo
concentration at 24 hpf, 20 μM ([5]; 24 hpf): 6500 ng/mL
concentration at 48 hpf, 20 μM ([5]; 48 hpf): 75.6 ng/mL
mean nmol/embryo per nmol available (zebrafish embryos [6]; [13]): 0.004595
nmol/embryo (zebrafish embryos [6]; [13]): 0.001159 nmol/embryo and 0.001224 nmol/embryo and 0.001235 nmol/embryo
nmol/embryo per nmol available (zebrafish embryos [6]; [13]): 0.00446 and 0.00471 and 0.004751
nmol/embryo (zebrafish embryos [6]; [14]): 0.0007856 nmol/embryo and 0.00092 nmol/embryo and 0.0008366 nmol/embryo and 0.0008192 nmol/embryo
nmol/embryo per nmol available (zebrafish embryos [6]; [14]): 0.003022 and 0.003538 and 0.003218 and 0.003151
nmol/embryo (zebrafish embryos [6]; 48 hpf, 5.39 μM, single chemical, ref Geier et al 2018): 0.0007734 nmol/embryo and 0.0007422 nmol/embryo and 0.000789 nmol/embryo
nmol/embryo per nmol available (zebrafish embryos [6]; 48 hpf, 5.39 μM, ref Geier et al 2018): 0.001435 and 0.001377 and 0.001464
nmol/embryo (zebrafish embryos [6]; 48 hpf, 11.6 μM, single chemical, ref Geier et al 2018): 0.001794 nmol/embryo and 0.001746 nmol/embryo and 0.001648 nmol/embryo
nmol/embryo per nmol available (zebrafish embryos [6]; 48 hpf, 11.6 μM, ref Geier et al 2018): 0.001547 and 0.001505 and 0.001421
nmol/embryo (zebrafish embryos [6]; 48 hpf, 25 μM, single chemical, ref Geier et al 2018): 0.002233 nmol/embryo and 0.002584 nmol/embryo and 0.002516 nmol/embryo
nmol/embryo per nmol available (zebrafish embryos [6]; 48 hpf, 25 μM, ref Geier et al 2018): 0.0008933 and 0.001034 and 0.001006
